Measured values as given in patent US20100190794A1, “Herbicidally Active Composition” (BASF SE, priority 2007, published 2010).

Key:
[1] = tested on: ECHCG; assay: greenhouse test, pre-emergence treatment; assay type: in vivo, Echinochloa crus-galli; conditions: 250 g/ha a.s., Use Example 2
Source text: (§1) The culture containers used were plastic pots containing loamy sand with approximately 3.0% of humus as substrate. The seeds of the test plants were sown separately for each species.
(§2) For the pre-emergence treatment, the active compounds, suspended or emulsified in water, were applied directly after sowing by means of finely distributing nozzles. The containers were irrigated gently to promote germination and growth and subsequently covered with transparent plastic hoods until the plants had rooted. This cover caused uniform germination of the test plants unless this was adversely affected by the active compounds.
(§3) Depending on the species, the plants were kept at 10-25° C. and 20-35° C., respectively. The test period extended over 2 to 4 weeks. During this time, the plants were tended and their response to the individual treatments was evaluated.
(§4) Evaluation was carried out using a scale from 0 to 100. 100 means no emergence of the plants, or complete destruction of at least the above-ground parts, and 0 means no damage or normal course of growth. Good herbicidal activity is given at values of at least 70, and very good herbicidal activity is given at values of at least 85.
(§5) The respective stated components A and B, and if appropriate, C were formulated as a 5% by weight or 10% by weight strength emulsion concentrate or a commercially available formulation of component B was used and, with addition of the amount of solvent system, introduced into the spray liquor used for applying the active compound. In the examples, the solvent used was water.
(§6) The test period extended over 20 or 21 days. During this time, the plants were tended, and their reactions to the treatment with active compound was monitored.
(§7) What was evaluated was the damage by the chemical compositions using a scale of from 0 to 100%, in comparison to the untreated control plants. 0 means no damage, and 100 means complete destruction of the plants.
(§8) In the examples below, using the method of S. R. Colby (1967) “Calculating synergistic and antagonistic responses of herbicide combinations”, Weeds 15, p. 22 ff., the value E, which is expected if the activity of the individual active compounds is only additive, was calculated.
(§9) where X=percent activity using active compound A at an application rate a; Y=percent activity using active compound B at an application rate b; E=expected activity (in %) by A+B at application rates a+b.
(§10) If the value found in experiments is higher than the value E calculated according to Colby, a synergistic effect is present.

[2] = tested on: POAAN; assay: greenhouse test, pre-emergence treatment; assay type: in vivo, Poa annua
Source text: as §1, §2, §3, §4, §5, §6, §7, §8, §9, §10

[3] = tested on: LOLMU; assay: greenhouse test, pre-emergence treatment; assay type: in vivo, Lolium multiflorum
Source text: as §1, §2, §3, §4, §5, §6, §7, §8, §9, §10

[4] = tested on: LAMPU; assay: greenhouse test, pre-emergence treatment; assay type: in vivo, Lamium purpureum; conditions: 125 g/ha a.s., Use Example 11
Source text: as §1, §2, §3, §4, §5, §6, §7, §8, §9, §10

[5] = tested on: PHACA; assay: greenhouse test, pre-emergence treatment; assay type: in vivo, Phalaris canariensis
Source text: as §1, §2, §3, §4, §5, §6, §7, §8, §9, §10

[6] = tested on: SETVI; assay: greenhouse test, post-emergence treatment; assay type: in vivo, Setaria viridis
Protocol: as §1
For the post-emergence treatment, the test plants were grown to a plant height of from 3 to 15 cm, depending on the plant habit, and only then treated with the active compounds which had been suspended or emulsified in water. To this end, the test plants were either sown directly and grown in the same containers, or they were first grown separately as seedlings and transplanted into the test containers a few days prior to treatment.
as §3, §4, §5, §6, §7, §8, §9, §10

[7] = tested on: PANDI; assay: greenhouse test, pre-emergence treatment; assay type: in vivo, Panicum dichotomiflorum; conditions: 62.5 g/ha a.s., Use Example 3
Source text: as §1, §2, §3
as §4, with “85. […]” for “85.”
as §6
(§11) What was evaluated was the damage by the chemical compositions using a scale of from 0 to 100%, in comparison to the untreated control plants. […]
(§12) In the examples below, using the method of S. R. Colby (1967) “Calculating synergistic and antagonistic responses of herbicide combinations”, Weeds 15, p. 22 ff., the value E, which is expected if the activity of the individual active compounds is only additive, was calculated. […]
as §10

[8] = tested on: AVEFA; assay: greenhouse test, pre-emergence treatment; assay type: in vivo, Avena fatua; conditions: Use Example 6
Source text: as §1, §2, §3
as §4, with “85. […]” for “85.”
as §6, §11, §12, §10

[9] = tested on: MATIN; assay: greenhouse test, pre-emergence treatment; assay type: in vivo, Matricaria inodora; conditions: Use Example 2
Source text: as §1, §2, §3, §4, §5, §6, §7, §8, §9, §10

[10] = tested on: SETVI; assay: greenhouse test, pre-emergence treatment; assay type: in vivo, Setaria viridis; conditions: 125 g/ha a.s., Use Example 11
Source text: as §1, §2
Depending on the species, the plants were kept at 10-25° C. and 20-35° C., respectively. […] During this time, the plants were tended and their response to the individual treatments was evaluated. […]
as §6, §11, §12

[11] = tested on: SETLU; assay: greenhouse test, pre-emergence treatment; assay type: in vivo, Setaria glauca; conditions: for Herbicidal action in % after 21 days against SETLU: Use Example 9
Source text: as §1, §2, §3, §4, §5, §6, §7, §8, §9, §10

[12] = tested on: CCHEC; assay: greenhouse test, pre-emergence treatment; assay type: in vivo, Cenchrus echinatus
Source text: as §1, §2, §3, §4, §5, §6, §7, §8, §9, §10

[13] = tested on: SETFA; assay: greenhouse test, pre-emergence treatment; assay type: in vivo, Setaria faberi
Source text: as §1, §2, §3, §4, §5, §6, §7, §8, §9, §10

Compound: CN1C(=O)C(C)(Cc2ccccc2)N(C)C(=O)C1=Cc1ccccc1C#N (stereo not drawn) [Example 20, 2-[5-Benzyl-1,4,5-trimethyl-3,6-dioxopiperazin-2-ylidenemethyl]benzo-nitrile]
- Herbicidal action in % after 20 days against ECHCG [1]: 100%
- Herbicidal action in % after 20 days against POAAN ([2]; 125 g/ha a.s., Use Example 7): 60%
- Herbicidal action in % after 20 days against POAAN ([2]; 125 g/ha a.s., Use Example 15): 60%
- Herbicidal action in % after 20 days against POAAN ([2]; 250 g/ha a.s., Use Example 6): 85%
- Herbicidal action in % after 20 days against POAAN ([2]; 250 g/ha a.s., Use Example 7): 85%
- Herbicidal action in % after 20 days against POAAN ([2]; 250 g/ha a.s., Use Example 15): 85%
- Herbicidal action in % after 20 days against POAAN ([2]; 500 g/ha a.s., Use Example 6): 95%
- Herbicidal action in % after 20 days against LOLMU ([3]; 125 g/ha a.s., Use Example 10): 0%
- Herbicidal action in % after 21 days against LOLMU ([3]; 125 g/ha a.s., Use Example 11): 0%
- Herbicidal action in % after 20 days against LOLMU ([3]; 125 g/ha a.s., Use Example 13): 0%
- Herbicidal action in % after 20 days against LOLMU ([3]; 250 g/ha a.s., Use Example 10): 45%
- Herbicidal action in % after 20 days against LOLMU ([3]; 250 g/ha a.s., Use Example 13): 45%
- Herbicidal action in % after 20 days against LOLMU ([3]; 500 g/ha a.s., Use Example 1): 70%
- Herbicidal action in % after 21 days against LAMPU [4]: 75%
- Herbicidal action in % after 20 days against PHACA ([5]; 250 g/ha a.s., Use Example 4): 80%
- Herbicidal action in % after 20 days against PHACA ([5]; 500 g/ha a.s., Use Example 1): 80%
- Herbicidal action in % after 20 days against SETVI ([6]; 62.5 g/ha a.s., Use Example 18): 60%
- Herbicidal action in % after 20 days against SETVI ([6]; 125 g/ha a.s., Use Example 17): 70%
- Herbicidal action in % after 20 days against SETVI ([6]; 125 g/ha a.s., Use Example 18): 70%
- Herbicidal action in % after 20 days against SETVI ([6]; 250 g/ha a.s., Use Example 17): 80%
- Herbicidal action in % after 21 days against PANDI [7]: 95%
- Herbicidal action in % after 20 days against AVEFA ([8]; 250 g/ha a.s.): 20%
- Herbicidal action in % after 20 days against AVEFA ([8]; 500 g/ha a.s.): 40%
- Herbicidal action in % after 20 days against MATIN ([9]; 62.5 g/ha a.s.): 0%
- Herbicidal action in % after 20 days against MATIN ([9]; 125 g/ha a.s.): 30%
- Herbicidal action in % after 20 days against MATIN ([9]; 250 g/ha a.s.): 90%
- Herbicidal action in % after 21 days against SETVI [10]: 80%
- Herbicidal action in % after 21 days against SETLU ([11]; 125 g/ha a.s.): 90%
- Herbicidal action in % after 20 days against SETLU ([11]; 125 g/ha a.s., Use Example 14): 90%
- Herbicidal action in % after 21 days against SETLU ([11]; 250 g/ha a.s.): 100%
- Herbicidal action in % after 20 days against SETLU ([11]; 250 g/ha a.s., Use Example 16): 98%
- Herbicidal action in % after 21 days against CCHEC ([12]; 62.5 g/ha a.s., Use Example 3): 20%
- Herbicidal action in % after 20 days against CCHEC ([12]; 250 g/ha a.s., Use Example 16): 90%
- Herbicidal action in % after 20 days against SETFA ([13]; 125 g/ha a.s., Use Example 12): 45%
- Herbicidal action in % after 20 days against SETFA ([13]; 125 g/ha a.s., Use Example 14): 95%
- Herbicidal action in % after 20 days against SETFA ([13]; 250 g/ha a.s., Use Example 12): 80%
